According to patent US9493455B2, “Azaindole derivatives as inhibitors of protein kinases” (ORIBASE PHARMA, priority 2012, dated 2016):

Key:
EGFR (ErbB1) = biological target: T1, EGFR (ErbB1) (Homo sapiens, UniProt P00533); experiment: In vitro kinase assay (Z′-LYTE); assay type: biochemical; details: read-out: % of inhibition of the kinase compared to the control
T1 construct: purchased Invitrogen
Experimental: (§1) The inhibitory activity of the compounds on several kinases including BRAF, EGFR (ErbB1), EGFR (ErbB1) T790M L858R, FGFR2, KDR (VEGFR2), PDGFRA (PDGFR alpha), SRC and other was evaluated by Invitrogen using the Z′-LYTE® technology. Briefly, the Z′-LYTE® biochemical assay employs a fluorescence-based, coupled-enzyme format and is based on the differential sensitivity of phosphorylated and non-phosphorylated peptides to proteolytic cleavage. The peptide substrate is labeled with two fluorophores—one at each end—that make up a FRET pair. A ratiometric method, which calculates the ratio (the Emission Ratio) of donor emission to acceptor emission after excitation of the donor fluorophore at 400 nm, is used to quantitate reaction progress.
(§2) The compounds are screened in 1% DMSO (final) in the well. For 10 point titrations, 3-fold serial dilutions are conducted from the starting concentration. All Peptide/Kinase Mixtures are diluted to a 2× working concentration in the appropriate Kinase Buffer. All ATP Solutions are diluted to a 4× working concentration in Kinase Buffer (50 mM HEPES pH 7.5, 0.01% BRIJ-35, 10 mM MgCl2, 1 mM EGTA). ATP Km apparent is previously determined using a Z′-LYTE® assay.
(§3) Each compound was incubated at a concentration of 100 nM (excepted to test the activity against ABL and ABL T315I for which the compounds were incubated at a concentration of 10 μM) and the tables B1 to B12 summarize the results obtained showing the inhibitory power of a compound. The inhibitory activity of OR0512 was also investigated using the same assays and the kinases for which activity was inhibited at more than 50% at the concentration of 100 nM of OR0512 are listed in the table B13.

FGFR2 = biological target: T2, FGFR2 (Homo sapiens, UniProt P21802); experiment: In vitro kinase assay (Z′-LYTE); assay type: biochemical; details: read-out: % of inhibition of the kinase compared to the control
T2 construct: purchased Invitrogen
Experimental: as §1, §2, §3

KDR (VEGFR2) = biological target: T3, KDR (VEGFR2) (Homo sapiens, UniProt P35968); experiment: In vitro kinase assay (Z′-LYTE); assay type: biochemical; details: read-out: % of inhibition of the kinase compared to the control
T3 construct: purchased Invitrogen
Experimental: as §1, §2, §3

SRC = biological target: T4, SRC (Homo sapiens, UniProt P12931); experiment: In vitro kinase assay (Z′-LYTE); assay type: biochemical; details: read-out: % of inhibition of the kinase compared to the control
T4 construct: purchased Invitrogen
Experimental: as §1, §2, §3

BRAF = biological target: T5, BRAF (Homo sapiens, UniProt P15056); experiment: In vitro kinase assay (Z′-LYTE); assay type: biochemical; details: compound 100 nM; ATP 100 μM; read-out: % of inhibition of the kinase compared to the control
T5 construct: purchased Invitrogen
Experimental: as §1, §2, §3

PDGFRA (PDGFR alpha) = biological target: T6, PDGFRA (PDGFR alpha) (Homo sapiens, UniProt P16234); experiment: In vitro kinase assay (Z′-LYTE); assay type: biochemical; details: read-out: % of inhibition of the kinase compared to the control
T6 construct: purchased Invitrogen
Experimental: as §1, §2, §3

HUVEC = experiment: In vitro cell proliferation assay (MTT); assay type: cell-based; details: Homo sapiens, 72 h
Experimental: (§4) Cancer cell lines (5×10^3 cells per well) or HUVEC (1×10^4 cells per well) or HRMEC (1×10^4 cells per well) were distributed in 96-well plates and incubating in duplicate with escalating concentrations (10 nM to 3 μM) of compounds for 72 hr. Cell proliferation was measured using MTT (3 [4,5-dimethylthiazol-2-yl]-2,5-diphenyltetrazolium bromide).

HuH7 = experiment: In vitro cell proliferation assay (MTT); assay type: cell-based; details: Homo sapiens, Huh-7, 72 h
Experimental: as §4

HepG2 = experiment: In vitro cell proliferation assay (MTT); assay type: cell-based; details: Homo sapiens, HepG2, 72 h
Experimental: as §4

EGFR (ErbB1) T790M L858R = biological target: T7, EGFR (ErbB1) T790M L858R (Homo sapiens, UniProt P00533, L858R/T790M); experiment: In vitro kinase assay (Z′-LYTE); assay type: biochemical; details: read-out: % of inhibition of the kinase compared to the control
T7 construct: purchased Invitrogen
Experimental: as §1, §2, §3

FGFR1 = biological target: T8, FGFR1 (Homo sapiens, UniProt P11362); experiment: In vitro kinase assay (Z′-LYTE); assay type: biochemical; details: read-out: % of inhibition of the kinase compared to the control
T8 construct: purchased Invitrogen
Experimental: as §1, §2, §3

PDGFRB = biological target: T9, PDGFRB (Homo sapiens, UniProt P09619); experiment: In vitro kinase assay (Z′-LYTE); assay type: biochemical; details: read-out: % of inhibition of the kinase compared to the control
T9 construct: purchased Invitrogen
Experimental: as §1, §2, §3

VEGFR1 = biological target: T10, VEGFR1 (Homo sapiens, UniProt P17948); experiment: In vitro kinase assay (Z′-LYTE); assay type: biochemical; details: read-out: % of inhibition of the kinase compared to the control
T10 construct: purchased Invitrogen
Experimental: as §1, §2, §3

ABL T315I = biological target: T11, ABL T315I (Homo sapiens, UniProt P00519, T315I); experiment: In vitro kinase assay (Z′-LYTE); assay type: biochemical; details: read-out: % of inhibition of the kinase compared to the control
T11 construct: purchased Invitrogen
Experimental: as §1, §2, §3

ABL = biological target: T12, ABL (Homo sapiens, UniProt P00519); experiment: In vitro kinase assay (Z′-LYTE); assay type: biochemical; details: read-out: % of inhibition of the kinase compared to the control
T12 construct: purchased Invitrogen
Experimental: as §1, §2, §3

BxPC-3 = experiment: In vitro cell proliferation assay (MTT); assay type: cell-based; details: Homo sapiens, BXPC-3, 72 h
Experimental: as §4

H1975 = experiment: In vitro cell proliferation assay (MTT); assay type: cell-based; details: Homo sapiens, NCI-H1975, 72 h
Experimental: as §4

HT29 = experiment: In vitro cell proliferation assay (MTT); assay type: cell-based; details: Homo sapiens, HT-29, 72 h
Experimental: as §4

A549 = experiment: In vitro cell proliferation assay (MTT); assay type: cell-based; details: Homo sapiens, A549, 72 h
Experimental: as §4

T2 sequence (P21802 22-821): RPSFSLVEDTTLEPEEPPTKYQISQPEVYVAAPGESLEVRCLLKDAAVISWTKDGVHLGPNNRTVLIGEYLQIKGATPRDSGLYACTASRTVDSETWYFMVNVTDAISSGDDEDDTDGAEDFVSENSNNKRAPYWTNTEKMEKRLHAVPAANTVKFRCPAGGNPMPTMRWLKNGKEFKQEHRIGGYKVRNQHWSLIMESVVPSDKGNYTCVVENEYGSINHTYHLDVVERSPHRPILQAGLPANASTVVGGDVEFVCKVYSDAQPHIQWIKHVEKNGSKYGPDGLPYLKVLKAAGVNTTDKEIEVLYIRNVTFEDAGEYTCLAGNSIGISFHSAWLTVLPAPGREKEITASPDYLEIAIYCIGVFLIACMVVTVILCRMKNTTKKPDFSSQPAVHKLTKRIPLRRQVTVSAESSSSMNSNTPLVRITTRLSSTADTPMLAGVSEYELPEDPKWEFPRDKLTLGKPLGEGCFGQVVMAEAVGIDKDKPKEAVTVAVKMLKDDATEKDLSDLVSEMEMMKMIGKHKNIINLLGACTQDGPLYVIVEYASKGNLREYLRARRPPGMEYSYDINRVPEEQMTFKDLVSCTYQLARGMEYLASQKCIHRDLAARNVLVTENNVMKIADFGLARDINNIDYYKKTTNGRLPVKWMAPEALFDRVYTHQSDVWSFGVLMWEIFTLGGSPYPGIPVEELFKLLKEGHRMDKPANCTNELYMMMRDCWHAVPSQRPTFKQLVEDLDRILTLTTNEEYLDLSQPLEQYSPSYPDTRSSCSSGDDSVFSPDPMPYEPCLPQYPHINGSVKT
T6 sequence (P16234 24-1089): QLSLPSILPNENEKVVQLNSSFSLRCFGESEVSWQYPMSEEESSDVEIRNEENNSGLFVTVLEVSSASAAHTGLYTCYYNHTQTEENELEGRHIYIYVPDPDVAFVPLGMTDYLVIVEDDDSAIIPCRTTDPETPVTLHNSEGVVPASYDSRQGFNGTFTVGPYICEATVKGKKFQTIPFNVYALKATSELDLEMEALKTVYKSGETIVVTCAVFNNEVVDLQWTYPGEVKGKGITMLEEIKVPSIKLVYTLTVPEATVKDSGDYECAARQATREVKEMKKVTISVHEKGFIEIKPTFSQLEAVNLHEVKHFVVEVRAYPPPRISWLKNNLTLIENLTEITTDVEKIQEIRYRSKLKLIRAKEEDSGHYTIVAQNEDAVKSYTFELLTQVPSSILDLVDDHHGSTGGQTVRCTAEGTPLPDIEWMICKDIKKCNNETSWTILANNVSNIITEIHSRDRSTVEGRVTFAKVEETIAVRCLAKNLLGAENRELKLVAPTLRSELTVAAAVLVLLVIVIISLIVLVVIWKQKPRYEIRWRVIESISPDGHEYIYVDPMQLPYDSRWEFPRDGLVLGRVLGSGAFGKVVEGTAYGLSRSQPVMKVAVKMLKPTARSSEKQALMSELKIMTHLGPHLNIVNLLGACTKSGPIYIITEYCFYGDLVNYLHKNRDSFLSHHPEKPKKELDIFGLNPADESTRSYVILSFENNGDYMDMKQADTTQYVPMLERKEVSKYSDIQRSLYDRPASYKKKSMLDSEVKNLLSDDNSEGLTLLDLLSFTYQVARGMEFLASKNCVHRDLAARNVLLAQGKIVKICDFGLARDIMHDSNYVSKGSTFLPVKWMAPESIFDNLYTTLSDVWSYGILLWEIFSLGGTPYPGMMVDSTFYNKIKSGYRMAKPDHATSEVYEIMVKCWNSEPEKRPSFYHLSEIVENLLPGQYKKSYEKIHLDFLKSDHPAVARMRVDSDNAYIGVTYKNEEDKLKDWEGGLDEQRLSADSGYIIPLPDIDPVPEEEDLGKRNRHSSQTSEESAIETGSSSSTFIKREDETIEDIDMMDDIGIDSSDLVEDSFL
T1 sequence (P00533 25-1210): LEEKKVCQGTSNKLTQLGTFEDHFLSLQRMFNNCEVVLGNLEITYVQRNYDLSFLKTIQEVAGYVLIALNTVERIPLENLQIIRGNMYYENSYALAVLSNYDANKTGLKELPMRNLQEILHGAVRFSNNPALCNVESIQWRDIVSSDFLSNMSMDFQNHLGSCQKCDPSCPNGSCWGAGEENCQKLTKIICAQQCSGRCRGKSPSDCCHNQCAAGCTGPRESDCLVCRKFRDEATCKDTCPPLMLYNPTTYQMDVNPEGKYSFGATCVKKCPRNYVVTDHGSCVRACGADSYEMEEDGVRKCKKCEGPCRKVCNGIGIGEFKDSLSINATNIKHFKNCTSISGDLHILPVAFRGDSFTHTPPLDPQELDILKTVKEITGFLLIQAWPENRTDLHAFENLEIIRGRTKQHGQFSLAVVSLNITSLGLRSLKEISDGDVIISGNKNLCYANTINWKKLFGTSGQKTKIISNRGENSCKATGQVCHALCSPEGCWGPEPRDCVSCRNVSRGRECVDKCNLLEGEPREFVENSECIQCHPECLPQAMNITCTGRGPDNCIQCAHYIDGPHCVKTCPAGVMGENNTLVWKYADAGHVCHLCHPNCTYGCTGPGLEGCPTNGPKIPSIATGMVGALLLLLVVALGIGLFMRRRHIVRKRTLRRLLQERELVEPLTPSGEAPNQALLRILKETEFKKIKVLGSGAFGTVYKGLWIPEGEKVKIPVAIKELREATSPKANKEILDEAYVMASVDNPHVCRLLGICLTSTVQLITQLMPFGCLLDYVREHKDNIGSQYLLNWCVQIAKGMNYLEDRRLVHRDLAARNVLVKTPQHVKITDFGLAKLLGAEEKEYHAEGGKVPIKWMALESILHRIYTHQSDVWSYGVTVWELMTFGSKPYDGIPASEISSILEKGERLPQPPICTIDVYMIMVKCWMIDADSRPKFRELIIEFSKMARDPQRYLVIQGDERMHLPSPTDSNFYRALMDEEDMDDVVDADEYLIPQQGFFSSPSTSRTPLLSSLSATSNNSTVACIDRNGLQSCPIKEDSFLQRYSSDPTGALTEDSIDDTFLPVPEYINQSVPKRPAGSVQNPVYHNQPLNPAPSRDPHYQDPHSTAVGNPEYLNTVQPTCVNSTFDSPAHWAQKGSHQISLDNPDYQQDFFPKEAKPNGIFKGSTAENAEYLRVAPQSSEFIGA
T5 sequence (P15056 whole entry): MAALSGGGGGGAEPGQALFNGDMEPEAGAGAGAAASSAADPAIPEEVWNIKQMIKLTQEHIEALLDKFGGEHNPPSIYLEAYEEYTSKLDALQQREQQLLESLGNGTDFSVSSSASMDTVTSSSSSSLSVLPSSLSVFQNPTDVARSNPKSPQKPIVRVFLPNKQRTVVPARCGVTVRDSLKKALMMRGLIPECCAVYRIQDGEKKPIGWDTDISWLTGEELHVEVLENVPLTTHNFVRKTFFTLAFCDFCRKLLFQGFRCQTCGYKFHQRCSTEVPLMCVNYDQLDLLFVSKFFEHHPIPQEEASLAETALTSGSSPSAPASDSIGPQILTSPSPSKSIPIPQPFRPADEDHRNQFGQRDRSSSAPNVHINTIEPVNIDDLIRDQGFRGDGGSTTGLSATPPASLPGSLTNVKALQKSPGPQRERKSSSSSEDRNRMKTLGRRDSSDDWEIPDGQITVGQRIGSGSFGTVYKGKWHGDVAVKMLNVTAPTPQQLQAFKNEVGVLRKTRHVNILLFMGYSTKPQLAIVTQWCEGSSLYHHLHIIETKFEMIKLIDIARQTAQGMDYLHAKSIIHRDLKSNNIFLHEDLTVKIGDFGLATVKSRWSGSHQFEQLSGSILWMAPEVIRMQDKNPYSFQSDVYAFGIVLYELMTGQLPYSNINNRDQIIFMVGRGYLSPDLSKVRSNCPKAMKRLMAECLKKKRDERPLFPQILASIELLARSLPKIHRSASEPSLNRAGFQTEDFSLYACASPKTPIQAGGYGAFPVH
T4 sequence (P12931 whole entry): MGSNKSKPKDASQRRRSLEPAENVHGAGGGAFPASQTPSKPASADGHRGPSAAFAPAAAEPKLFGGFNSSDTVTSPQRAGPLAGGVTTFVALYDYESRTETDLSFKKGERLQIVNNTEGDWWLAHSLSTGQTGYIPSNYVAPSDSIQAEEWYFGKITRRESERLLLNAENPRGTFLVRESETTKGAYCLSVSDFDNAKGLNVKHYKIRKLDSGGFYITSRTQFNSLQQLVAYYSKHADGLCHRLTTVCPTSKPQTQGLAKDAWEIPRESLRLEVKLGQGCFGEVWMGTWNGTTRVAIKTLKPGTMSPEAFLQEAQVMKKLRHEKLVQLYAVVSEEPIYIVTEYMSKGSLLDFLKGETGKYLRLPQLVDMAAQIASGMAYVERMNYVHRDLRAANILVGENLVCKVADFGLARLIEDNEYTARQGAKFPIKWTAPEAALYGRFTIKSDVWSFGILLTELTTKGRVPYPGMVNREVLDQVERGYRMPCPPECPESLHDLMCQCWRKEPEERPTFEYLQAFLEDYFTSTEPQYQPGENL

| inhibition at 0.1 µM (EGFR (ErbB1)) [%] | inhibition at 0.1 µM (FGFR2) [%] | inhibition at 0.1 µM (KDR (VEGFR2)) [%] | inhibition at 0.1 µM (SRC) [%] | inhibition at 0.1 µM (BRAF) [%] | inhibition at 0.1 µM (PDGFRA (PDGFR alpha)) [%] | EC50 (HuH7) [nM] | EC50 (HepG2) [nM] | inhibition at 0.1 µM (EGFR (ErbB1) T790M L858R) [%] | inhibition at 0.1 µM (FGFR1) [%] | inhibition at 0.1 µM (PDGFRB) [%] | inhibition at 0.1 µM (VEGFR1) [%] | inhibition at 10 µM (ABL T315I) [%] | inhibition at 10 µM (ABL) [%] | EC50 (BxPC-3) [nM] | EC50 (H1975) [nM] | EC50 (HT29) [nM] | EC50 (A549) [nM] | SMILES | EC50 (HUVEC) [nM] |
| --- | --- | --- | --- | --- | --- | --- | --- | --- | --- | --- | --- | --- | --- | --- | --- | --- | --- | --- | --- |
| ≥ 50 | < 50 | < 50 | ≥ 50 | < 50 | ≥ 50 | 100 to 1000 | 100 to 1000 |  |  |  |  |  |  |  |  |  |  | COC(=O)c1cc2cc(NCc3cc(NC(=O)c4ccc(Cl)c(C(F)(F)F)c4)ccc3C)cnc2[nH]1 [OR0871] | 100 to 1000 |
| ≥ 50 | < 50 | ≥ 50 |  | ≥ 50 |  | ≥ 1000 | 100 to 1000 |  |  |  |  |  |  |  |  |  |  | COC(=O)c1cc2cc(NCc3cc(NC(=O)c4cncc(C)c4)ccc3C)cnc2[nH]1 [OR0867] | ≥ 1000 |
| ≥ 50 | < 50 | < 50 | ≥ 50 | < 50 | ≥ 50 | 100 to 1000 |  | < 50 | < 50 | < 50 | < 50 | < 50 | ≥ 50 | ≥ 1000 |  |  |  | COC(=O)c1cc2cc(NCc3cc(NC(=O)c4ccc(O)c(C(F)(F)F)c4)ccc3C)cnc2[nH]1 [OR0605] |  |
| ≥ 50 | < 50 | < 50 |  | ≥ 50 |  | ≥ 1000 | 100 to 1000 |  |  |  |  |  |  |  |  |  |  | COC(=O)c1cc2cc(NCc3cc(NC(=O)c4ccc(C(F)(F)F)nc4)ccc3C)cnc2[nH]1 [OR0865] | 100 to 1000 |
| < 50 | < 50 | < 50 | ≥ 50 | ≥ 50 | ≥ 50 |  | ≤ 100 | < 50 | < 50 | < 50 | < 50 | < 50 | ≥ 50 | ≥ 1000 | ≥ 1000 | 100 to 1000 | 100 to 1000 | COC(=O)c1cc2cc(NCc3cc(NC(=O)Cc4cccc(C(F)(F)F)c4)ccc3C)cnc2[nH]1 [OR0601] | ≤ 100 |
| ≥ 50 | ≥ 50 | ≥ 50 | ≥ 50 | < 50 | ≥ 50 | 100 to 1000 | 100 to 1000 |  |  |  |  |  |  |  |  |  |  | COC(=O)c1cc2cc(NCc3cc(NC(=O)c4ccc(CN5CCN(C)CC5)c(C(F)(F)F)c4)ccc3F)cnc2[nH]1 [OR0816] | ≤ 100 |
| < 50 | < 50 | < 50 |  | < 50 | < 50 | ≥ 1000 | 100 to 1000 |  |  |  |  |  |  |  |  |  |  | COC(=O)c1cc2cc(NCc3cc(NC(=O)c4ccnc(C(F)(F)F)c4)ccc3C)cnc2[nH]1 [OR0866] | 100 to 1000 |
